We go through 13 compounds from patent EP4656642A1, “ESTROGEN RECEPTOR PROTEOLYSIS TARGETING CHIMERA COMPOUND AND USE THEREOF” (GAN & LEE PHARM CO., LTD, priority 2023, dated 2024).

Common to all, as to format: cell-based
For one assay, the system named is T-47D cells. Description: Inhibition of cell proliferation in T-47D cells (CCK-8, 6 days). The conditions noted are these: 6 days of treatment, Table 3. A digest of the protocol:
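Viability read-out was CCK-8 after 6 days of compound treatment (37 °C, 5% CO2) across graded concentrations. Cells were T-47D seeded at 3,000 per well in 1640 medium plus 10% FBS. IC50 was calculated against proliferation.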

In the next assay the test system is MCF-7 cells. Nature of the assay: Inhibition of cell proliferation of MCF-7 cells (CCK-8, 9 days). Conditions: treated for 9 days, CCK-8 kit (Table 6). A digest of the protocol: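 Read-out was CCK-8 viability after 9-day continuous exposure (37°C, 5% CO2) of MCF-7 cells plated at 800/well in 10% FBS DMEM across several compound concentrations. Values are proliferation IC50s.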
On the technique in general: Tetrazolium dyes change colour on reduction, which living cells bring about.

The target in assay [1] is T1, ERα (Homo sapiens, UniProt P03372).
T1 sequence (P03372 1-595): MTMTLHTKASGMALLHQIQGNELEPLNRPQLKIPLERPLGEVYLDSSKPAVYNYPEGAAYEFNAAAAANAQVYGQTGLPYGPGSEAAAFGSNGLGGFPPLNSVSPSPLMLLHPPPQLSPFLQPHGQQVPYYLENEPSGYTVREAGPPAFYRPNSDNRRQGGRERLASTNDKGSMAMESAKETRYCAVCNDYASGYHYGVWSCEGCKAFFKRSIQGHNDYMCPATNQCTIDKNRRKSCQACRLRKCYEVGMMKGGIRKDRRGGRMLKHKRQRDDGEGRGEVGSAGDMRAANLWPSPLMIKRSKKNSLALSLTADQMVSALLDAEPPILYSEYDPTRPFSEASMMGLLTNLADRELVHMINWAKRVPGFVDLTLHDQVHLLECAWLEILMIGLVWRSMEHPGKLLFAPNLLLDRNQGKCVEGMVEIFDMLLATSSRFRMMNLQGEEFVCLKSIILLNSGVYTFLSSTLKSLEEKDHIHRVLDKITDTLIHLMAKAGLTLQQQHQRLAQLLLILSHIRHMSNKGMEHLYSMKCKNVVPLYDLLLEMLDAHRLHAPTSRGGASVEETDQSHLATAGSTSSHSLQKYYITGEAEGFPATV
Nature of the assay: Degradation of ERα in MCF-7 cells (immunoblotting, 4 h). A digest of the protocol: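 Degradation rate reflects ERα band intensity, corrected to an internal reference protein, relative to control. Values come from Western blotting of lysates from MCF-7 cells exposed 4 h at 37°C to compounds at final concentrations of 0.15-1000nM.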
(Immunoblotting shows a protein as a band on a membrane.)

In assay [2] the target is T1, ERα. Description: Degradation of ERα in T-47D cells (immunoblotting, 4 h). More on the design: host or cells: T-47D. A digest of the protocol:
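ERα protein levels were assessed by immunoblot of RIPA lysates (with protease inhibitor) after 4 h exposure at 37°C. Compound was added in DMSO to T-47D cells at final concentrations of 0.15-1000 nM.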

Consider `C[C@@H]1Cc2c([nH]c3ccccc23)[C@@H](c2c(F)cc(N3CCC(C(=O)N4CCC(N5CCC6(CC5)COc5c6ccc6c5CN(C5CCC(=O)NC5=O)C6=O)CC4)CC3)cc2F)N1CC(F)F` (stereo partly drawn) [A106], for which the IC50 came to 1.2 nM in the assay with T-47D cells and 190 nM in the assay with MCF-7 cells. Moreover, the “Degradation rate (%) of ERα in MCF-7 cells” value at ERα [1] (1nM compound) was 19%; at ERα [1] (10nM compound) it was 62%. For the same compound, the “Degradation rate (%) of ERα in T-47D cells” value at ERα [2] (1nM compound) worked out at 43%; at ERα [2] (10nM compound) it was 74%.
For the compound `C[C@@H]1Cc2c(ccc3[nH]ncc23)C(c2ccc(N3CC4(CCC(N5CCC6(CC5)COc5c6ccc6c5CN(C5CCC(=O)NC5=O)C6=O)CC4)C3)cn2)N1CC(F)(F)F` (stereo partly drawn) [B49], the values for the IC50 with T-47D cells and with MCF-7 cells were 316 nM and 7150 nM, respectively. Moreover, the “Degradation rate (%) of ERα in MCF-7 cells” value at ERα [1] (1nM compound) is on record as 24%; on ERα [1] (10nM compound), 43%. The “Degradation rate (%) of ERα in T-47D cells” value on ERα [2] (1nM compound) is reported as 42%; at ERα [2] (10nM compound), 68%.
In the case of `O=C1CCC(N2Cc3c(ccc4c3OCC43CCN(C(=O)C4CCC(CN5CCC(C#Cc6ccc(C7c8ccc(O)cc8CCC7c7ccccc7)cc6)CC5)CC4)CC3)C2=O)C(=O)N1` (stereo not drawn) [C6], the IC50 turned out to be 2.93 nM with T-47D cells and 92.5 nM in the assay with MCF-7 cells. The “Degradation rate (%) of ERα in MCF-7 cells” value at ERα [1] (1nM compound) was determined as 27%; at ERα [1] (10nM compound), 42%. Further, the figures for the “Degradation rate (%) of ERα in T-47D cells” value at ERα [2] (1nM compound) and on ERα [2] (10nM compound) were 38% and 49%, respectively.
On to `O=C1CCC(N2Cc3cc4c(cc3C2=O)OC2(CC4)CCN(C3CC4(CCN(c5ccc([C@@H]6c7ccc(O)cc7CC[C@@H]6c6ccccc6)cc5)CC4)C3)CC2)C(=O)N1` (stereo partly drawn) [M17], for which the IC50 with T-47D cells was determined as 8 nM; with MCF-7 cells, 30 nM. For the same compound, the “Degradation rate (%) of ERα in MCF-7 cells” value at ERα [1] (1nM compound) is listed as -9%; at ERα [1] (10nM compound), 0%. In addition, the results for the “Degradation rate (%) of ERα in T-47D cells” value on ERα [2] (1nM compound) and at ERα [2] (10nM compound) were 10% and 20%, respectively.
On to `O=C1CCC(N2Cc3cc4c(cc3C2=O)CCC2(CN(C(=O)[C@H]3CC[C@H](CN5CCN(c6ccc([C@@H]7c8ccc(O)cc8CC[C@@H]7c7ccccc7)cc6)CC5)CC3)C2)O4)C(=O)N1` (stereo partly drawn) [C7], for which the IC50 in the assay with T-47D cells came out at 1.75 nM; in the assay with MCF-7 cells it was 84.7 nM. In addition, the “Degradation rate (%) of ERα in MCF-7 cells” value at ERα [1] (1nM compound) came out at 38%; at ERα [1] (10nM compound), 63%. In addition, the figures for the “Degradation rate (%) of ERα in T-47D cells” value at ERα [2] (1nM compound) and at ERα [2] (10nM compound) were 45% and 74%, respectively.
As to `O=C1CCC(N2Cc3cc4c(cc3C2=O)OC2(CC4)CN(C(=O)C3CCC4(CC3)CN(c3ccc([C@@H]5c6ccc(O)cc6CC[C@@H]5c5ccccc5)cc3)C4)C2)C(=O)N1` (stereo partly drawn) [A47], the IC50 in the assay with T-47D cells is 11.7 nM; in the assay on MCF-7 cells, 871 nM. Moreover, the “Degradation rate (%) of ERα in MCF-7 cells” value on ERα [1] (1nM compound) came to 9%; on ERα [1] (10nM compound), 14%. In addition, the “Degradation rate (%) of ERα in T-47D cells” value on ERα [2] (1nM compound) is -10%; at ERα [2] (10nM compound), 37%.
With `C[C@@H]1Cc2cc(O)ccc2[C@@H](c2c(F)cc(N3CC4(CCC(N5CCC6(CC5)COc5c6ccc6c5CN(C5CCC(=O)NC5=O)C6=O)CC4)C3)cc2F)N1CC(F)(F)F` (stereo partly drawn) [I4], the IC50 in the assay with T-47D cells was 12.7 nM; in the assay on MCF-7 cells, 119 nM. Besides, the results for the “Degradation rate (%) of ERα in MCF-7 cells” value on ERα [1] (1nM compound) and on ERα [1] (10nM compound) were 39% and 54%, respectively. The entries for the “Degradation rate (%) of ERα in T-47D cells” value on ERα [2] (1nM compound) and on ERα [2] (10nM compound) were 41% and 62%, respectively.
As to `CC1(CN2CCC3(CC2)COc2c3ccc3c2CN(C2CCC(=O)NC2=O)C3=O)CCN(CC2CCN(c3ccc([C@@H]4c5ccc(O)cc5CC[C@@H]4c4ccccc4)cc3)CC2)CC1` (stereo partly drawn) [B37], the IC50 with T-47D cells was determined as 8.54 nM; in the assay with MCF-7 cells, 2800 nM. Also, the “Degradation rate (%) of ERα in MCF-7 cells” value was 11% at ERα [1] (1nM compound) and 41% at ERα [1] (10nM compound). Besides, the “Degradation rate (%) of ERα in T-47D cells” value at ERα [2] (1nM compound) is recorded as 12%; at ERα [2] (10nM compound) it was 36%.
Take `O=C1CCC(N2Cc3ccc4c(c3C2=O)OCC42CCN(C3CCN(C(=O)C4CCN(c5ccc([C@@H]6c7ccc(O)cc7CC[C@@H]6c6ccccc6)cc5)CC4)CC3)CC2)C(=O)N1` (stereo partly drawn) [A94]: the half-inhibitory concentration (IC50) with T-47D cells turned out to be 2.74 nM; with MCF-7 cells it was 45 nM. Moreover, the “Degradation rate (%) of ERα in MCF-7 cells” value was determined as 22% at ERα [1] (1nM compound) and 48% on ERα [1] (10nM compound). The “Degradation rate (%) of ERα in T-47D cells” value at ERα [2] (1nM compound) amounted to 54%; on ERα [2] (10nM compound), 80%.
On to `O=C1CCC(N2Cc3c(ccc4c3OCC43CCN(C(=O)C(=O)N4CCC5(CCN(c6ccc([C@@H]7c8ccc(O)cc8CC[C@@H]7c7ccccc7)cc6)CC5)C4)CC3)C2=O)C(=O)N1` (stereo partly drawn) [N5], for which the IC50 with T-47D cells turned out to be 1.79 nM; in the assay with MCF-7 cells it was 34.1 nM. Moreover, the results for the “Degradation rate (%) of ERα in MCF-7 cells” value at ERα [1] (1nM compound) and at ERα [1] (10nM compound) were 58% and 69%, respectively. For the same compound, the “Degradation rate (%) of ERα in T-47D cells” value was determined as 63% at ERα [2] (1nM compound) and 82% on ERα [2] (10nM compound).
With `COC(=O)[C@@H]1C[C@H](N2CCC3(CC2)COc2c3ccc3c2CN(C2CCC(=O)NC2=O)C3=O)CCN1C1CCN(c2ccc([C@@H]3c4ccc(O)cc4CC[C@@H]3c3ccccc3)cc2)CC1` (stereo partly drawn) [H32], the IC50 in the assay with T-47D cells was 1.44 nM; in the assay with MCF-7 cells, 4020 nM. The “Degradation rate (%) of ERα in MCF-7 cells” value is on record as 35% at ERα [1] (1nM compound) and 58% on ERα [1] (10nM compound). Besides, the “Degradation rate (%) of ERα in T-47D cells” value on ERα [2] (1nM compound) is given as 52%; at ERα [2] (10nM compound), 77%.
For the compound `O=C1CCC(N2Cc3c(ccc4c3OCC43CCN(CC4CCN(CC5CCN(c6ccc([C@@H]7c8ccc(O)cc8CC[C@@H]7c7ccccc7)cc6)CC5)CC4)CC3)C2=O)C(=O)N1` (stereo partly drawn) [A102], the IC50 in the assay on T-47D cells stood at 20.2 nM; in the assay with MCF-7 cells, 107 nM. Further, the “Degradation rate (%) of ERα in MCF-7 cells” value on ERα [1] (1nM compound) is listed as 36%; at ERα [1] (10nM compound), 73%. The “Degradation rate (%) of ERα in T-47D cells” value at ERα [2] (1nM compound) is reported as 16%; at ERα [2] (10nM compound), 51%.
For the compound `O=C1CCC(N2Cc3c(ccc4c3OCC43CCN(C(=O)C4CCC(CN5CCN(c6ccc(C7c8ccc(O)cc8CCC7c7ccccc7)cc6)CC5)CC4)CC3)C2=O)C(=O)N1` (stereo not drawn) [C5], the IC50 in the assay with T-47D cells worked out at 1.3 nM; in the assay on MCF-7 cells it was 6.7 nM. Besides, the “Degradation rate (%) of ERα in MCF-7 cells” value is recorded as 43% at ERα [1] (1nM compound) and 66% at ERα [1] (10nM compound). The “Degradation rate (%) of ERα in T-47D cells” value on ERα [2] (1nM compound) is listed as 52%; on ERα [2] (10nM compound), 77%.

The IC50 is the concentration needed to halve the response being measured. Low readings indicate inhibition by little substance, high ones a need for much substance.
